We go through 25 compounds from ChEMBL document CHEMBL1122862, “Synthesis and antibacterial activity of 2,2'-dithiobis(benzamide) derivatives against Mycobacterium species” (1985).

What all share (type): functional
Assay [1] has as its system Mycobacterium tuberculosis. Description: Antibacterial activity against Mycobacterium tuberculosis H37Rv.
The test system of assay [2] is Mycobacterium intracellulare. Briefly: Antibacterial activity against Mycobacterium intracellular.
Assay [3] has as its system Mycobacterium kansasii. Briefly: Antibacterial activity against Mycobacterium kansasii.

Values after ≈ are worked out from the molar mass of the structure shown.

The term MIC denotes the least concentration at which growth counts as inhibited. Low values mean greater potency, high ones weaker potency. Consider `CN[C@@H]1[C@H](O[C@H]2[C@H](O[C@H]3[C@H](O)[C@@H](O)[C@H](N=C(N)N)[C@@H](O)[C@@H]3N=C(N)N)O[C@@H](C)[C@]2(O)C=O)O[C@@H](CO)[C@H](O[C@@H]2O[C@H](CO)[C@@H](O)[C@H](O)[C@@H]2O)[C@H]1O`, for which the figures for the MIC in assay [1], in assay [2] and in assay [3] were 0.78 µg/mL (≈ 1.05 µM), 12.5 µg/mL (≈ 16.8 µM) and 3.13 µg/mL (≈ 4.21 µM), respectively.

Consider `O=C(c1ccccc1SSc1ccccc1C(=O)N1CCN(C/C=C/c2ccccc2)CC1)N1CCN(C/C=C/c2ccccc2)CC1`, for which the MIC in assay [1] is 100 µg/mL (≈ 148 µM); in assay [2] it was more than 100 µg/mL; in assay [3], more than 100 µg/mL.

For the compound `CCOC(=O)CNC(=O)c1ccccc1SSc1ccccc1C(=O)NCC(=O)OCC`, the MIC in assay [1], in assay [2] and in assay [3] was 25 µg/mL (≈ 52.5 µM) in each case.

As to `O=C(NCC(O)c1ccccc1)c1ccccc1SSc1ccccc1C(=O)NCC(O)c1ccccc1` (stereo not given), the MIC was 100 µg/mL (≈ 184 µM) in assay [1], more than 100 µg/mL in assay [2] and 100 µg/mL (≈ 184 µM) in assay [3].

As for `CCCCc1ccc(NC(=O)c2ccccc2SSc2ccccc2C(=O)Nc2ccc(CCCC)cc2)cc1`, the MIC in assay [1] is 0.78 µg/mL (≈ 1.37 µM); in assay [2] it was 12.5 µg/mL (≈ 22 µM); in assay [3], 12.5 µg/mL (≈ 22 µM).

Take `O=C(NCC(O)c1ccc(O)c(O)c1)c1ccccc1SSc1ccccc1C(=O)NCC(O)c1ccc(O)c(O)c1` (stereo not given): the minimum inhibitory concentration (MIC) in assay [1] is 100 µg/mL (≈ 164 µM); in assay [2] it was more than 100 µg/mL; in assay [3] it was more than 100 µg/mL.

Take `O=C(NCCNCCO)c1ccccc1SSc1ccccc1C(=O)NCCNCCO`: the MIC in assay [1] was 25 µg/mL (≈ 52.2 µM); in assay [2], more than 100 µg/mL; in assay [3] it was more than 100 µg/mL.

With `O=C(NCc1cccc2ccccc12)c1ccccc1SSc1ccccc1C(=O)NCc1cccc2ccccc12`, the minimum inhibitory concentration (MIC) in assay [1], in assay [2] and in assay [3] was more than 100 µg/mL each time.

As to `O=C(Nc1cc2ccccc2cc1O)c1ccccc1SSc1ccccc1C(=O)Nc1cc2ccccc2cc1O`, the MIC was 12.5 µg/mL (≈ 21.2 µM) in assay [1], 50 µg/mL (≈ 84.9 µM) in assay [2] and 25 µg/mL (≈ 42.5 µM) in assay [3].

With `CCn1c2ccccc2c2cc(NC(=O)c3ccccc3SSc3ccccc3C(=O)Nc3ccc4c(c3)c3ccccc3n4CC)ccc21`, the MIC in assay [1] was 3.13 µg/mL (≈ 4.53 µM); in assay [2] it was more than 100 µg/mL; in assay [3], 50 µg/mL (≈ 72.4 µM).

As to `CCCCCCCCCCCCCCCC(=O)OCCNC(=O)c1ccccc1SSc1ccccc1C(=O)NCCOC(=O)CCCCCCCCCCCCCCC`, the MIC in assay [1], in assay [2] and in assay [3] was 100 µg/mL (≈ 115 µM) throughout.

On to `CN1CCCN(C(=O)c2ccccc2SSc2ccccc2C(=O)N2CCCN(C)CC2)CC1`, for which the MIC in assay [1], in assay [2] and in assay [3] was more than 100 µg/mL throughout.

On to `O=C(c1ccccc1SSc1ccccc1C(=O)N1C(=O)c2ccccc2C1=O)N1C(=O)c2ccccc2C1=O`, for which the MIC in assay [1], in assay [2] and in assay [3] was more than 100 µg/mL throughout.

On to `CCOc1ccc2nc(NC(=O)c3ccccc3SSc3ccccc3C(=O)Nc3nc4ccc(OCC)cc4s3)sc2c1`, for which the MIC in assay [1], in assay [2] and in assay [3] was more than 100 µg/mL throughout.

As to `CC(CCc1ccccc1)NC(=O)c1ccccc1SSc1ccccc1C(=O)NC(C)CCc1ccccc1` (stereo not given), the MIC was 100 µg/mL (≈ 176 µM) in assay [1], more than 100 µg/mL in assay [2] and more than 100 µg/mL in assay [3].

In the case of `CCCCCCCCCCCC(=O)OCCCNC(=O)c1ccccc1SSc1ccccc1C(=O)NCCCOC(=O)CCCCCCCCCCC`, the values for the MIC in assay [1], in assay [2] and in assay [3] were 0.78 µg/mL (≈ 0.993 µM), more than 100 µg/mL and 12.5 µg/mL (≈ 15.9 µM), respectively.

As to `CCC(CO)NC(=O)c1ccccc1SSc1ccccc1C(=O)NC(CC)CO` (stereo not given), the values for the MIC in assay [1], in assay [2] and in assay [3] were 12.5 µg/mL (≈ 27.9 µM), 25 µg/mL (≈ 55.7 µM) and 25 µg/mL (≈ 55.7 µM), respectively.

For the compound `O=C(Nc1cccc([N+](=O)[O-])c1)c1ccccc1SSc1ccccc1C(=O)Nc1cccc([N+](=O)[O-])c1`, the minimum inhibitory concentration (MIC) in assay [1] was 100 µg/mL (≈ 183 µM); in assay [2], more than 100 µg/mL; in assay [3] it was more than 100 µg/mL.

For the compound `O=C(NCO)c1ccccc1SSc1ccccc1C(=O)NCO`, the minimum inhibitory concentration (MIC) in assay [1] is 6.25 µg/mL (≈ 17.1 µM); in assay [2] it was 25 µg/mL (≈ 68.6 µM); in assay [3], 25 µg/mL (≈ 68.6 µM).

In the case of `O=C(c1ccccc1SSc1ccccc1C(=O)n1nnc2ccccc21)n1nnc2ccccc21`, the MIC in assay [1], in assay [2] and in assay [3] was more than 100 µg/mL in each case.

With `CCCCCCCCCCCC(=O)OC(C)CNC(=O)c1ccccc1SSc1ccccc1C(=O)NCC(C)OC(=O)CCCCCCCCCCC` (stereo not given), the minimum inhibitory concentration (MIC) in assay [1] came to 3.13 µg/mL (≈ 3.99 µM); in assay [2], 100 µg/mL (≈ 127 µM); in assay [3], 50 µg/mL (≈ 63.7 µM).

Turning to `CCC(CO)(CO)NC(=O)c1ccccc1SSc1ccccc1C(=O)NC(CC)(CO)CO`, the MIC in assay [1] was 25 µg/mL (≈ 49.1 µM); in assay [2] it was 100 µg/mL (≈ 197 µM); in assay [3], 25 µg/mL (≈ 49.1 µM).

`CCOCCCNC(=O)c1ccccc1SSc1ccccc1C(=O)NCCCOCC`: the MIC in assay [1] is 1.56 µg/mL (≈ 3.27 µM); in assay [2] it was 12.5 µg/mL (≈ 26.2 µM); in assay [3], 12.5 µg/mL (≈ 26.2 µM).

Turning to `O=c1c2ccccc2sn1CCO`, the minimal inhibitory concentration (MIC) in assay [1] is 12.5 µg/mL (≈ 64 µM); in assay [2], 12.5 µg/mL (≈ 64 µM); in assay [3], 25 µg/mL (≈ 128 µM).

Regarding `CCCCN(CCCC)C(=O)c1ccccc1SSc1ccccc1C(=O)N(CCCC)CCCC`, the MIC in assay [1] came out at 6.25 µg/mL (≈ 11.8 µM); in assay [2], 25 µg/mL (≈ 47.3 µM); in assay [3], 25 µg/mL (≈ 47.3 µM).
